# System: tHTT (total HTT protein)
# Test: Time-resolved FRET (HTRF) assay: Q48-Huntingtin and total-Huntingtin detection in GEN020 hESC lysates
# Format: cell-based
# Details: tHTT activity; human embryonic stem cells GEN020 (mutant 48 Q repeat allele); test compounds 48 hours; read-out: HTT Lowering Activity (HTRF)
# Protocol: Time-resolved FRET assay: Q48-Huntingtin and total-Huntington detection Detection of endogenous HTT protein in cell lysates was performed using a protocol adapted from Weiss et al. See Weiss A et al. (2009). Single-step detection of mutant huntingtin in animal and human tissues: a bioassay for Huntington's disease. Anal. Biochem. 395(1): 8-15.
# The multiplex assay was performed in human embryonic stem cells (GEN020 hESCs with mutant 48 Q repeat allele) which have been derived by Genea Biocells from human blastocysts of HD donors. Bradley C K et al. (2011). Derivation of Huntington's disease-affected human embryonic stem cell lines, Stem Cells Dev. 2011 March; 20(3):495-502. Cells were plated into 384-well collagen coated plates (10,000 cells per well) and left to adhere for 24 hours, test compounds were then added for 48 hours (37° C., 5% CO2), cells were then lysed, and the lysate was transferred to a black 384-well assay plate.
# The assay plate included a combination of HTRF labelled monoclonal antibodies added to recognize discreet areas of the HTT protein, the Tb “donor” antibody (2B7-Tb: 0.2 ng/well) recognizes a sequence at the N-terminus of the protein, an Alexa488 “acceptor 1” antibody (MW1-Alexa488: 30 ng/well) recognizes an area in the polyQ region, whereas a d2 “acceptor 2” antibody (MAB2166-d2: 6 ng/well) recognizes a sequence beyond the polyQ region. These detection reagents were incubated with the cell lysate at room temperature for 4-6 hours before having their fluorescence quantified at 615 nm (donor) and 535 nm and 665 nm (acceptor 1 and 2 respectively). The donor/acceptor ratio between these signals indicated the relative quantities of mHTT and tHTT.
# Results for various compounds described herein are provided in the Tables below. tHTT activity in this assay is categorized as 10-20 μM (−); 1-10 μM (+); 0.5-1 μM (++); 0.1-0.5 μM (+++); <0.1 μM (++++).
row,SMILES,IC50
1,"Cc1cn2cc(NC(=O)c3cnc(N4CC[C@@H](NC5=NCCN5)C4)cn3)cc(F)c2n1 [Example 20, (R)-5-(3-((4,5-dihydro-1H-imidazol-2-yl)amino)pyrrolidin-1-yl)-N-(8-fluoro-2-methylimidazo[1,2-a]pyridin-6-yl)pyrazine-2-carboxamide]",100 to 500 nM
2,"Cc1cn2cc(NC(=O)c3cnc(N4CC5C[C@@]5(N)C4)cn3)cc(F)c2n1 (stereo partly drawn) [Example 35, 5-((1S)-1-amino-3-azabicyclo[3.1.0]hexan-3-yl)-N-(8-fluoro-2-methylimidazo[1,2-a]pyridin-6-yl)pyrazine-2-carboxamide]",500 to 1000 nM
3,"Cc1cn2cc(NC(=O)c3cnc(N4CC5C(N)C5C4)cn3)cc(F)c2n1 (stereo not drawn) [Example 24, 5-(6-amino-3-azabicyclo[3.1.0]hexan-3-yl)-N-(8-fluoro-2-methyl-imidazo[1,2-a]pyridin-6-yl)pyrazine-2-carboxamide]",< 100 nM
4,"CN[C@@H]1CCN(c2cnc(C(=O)Nc3cc(F)c4nc(C)nn4c3)cn2)C1 [Example 19, (R)-N-(8-fluoro-2-methyl-[1,2,4]triazolo[1,5-a]pyridin-6-yl)-5-(3-(methylamino)pyrrolidin-1-yl)pyrazine-2-carboxamide]",100 to 500 nM
5,"CNC1C2CN(c3cnc(C(=O)Nc4cc(F)c5nc(C)cn5c4)cn3)CC21 (stereo not drawn) [Example 29, N-(8-Fluoro-2-methyl-imidazo[1,2-a]pyridin-6-yl)-5-[6-(methylamino)-3-azabicyclo[3.1.0]hexan-3-yl]pyrazine-2-carboxamide]",< 100 nM
6,COc1nc(NC(=O)c2cnc(N3CC4C(N)C4C3)cn2)cn2cc(C)nc12 (stereo not drawn) [Example 26],< 100 nM
7,"CN[C@@H]1CCN(c2cnc(C(=O)Nc3cc(OC)c4nc(C)oc4c3)cn2)C1 [Example 22, (R)-N-(4-methoxy-2-methylbenzo[d]oxazol-6-yl)-5-(3-(methylamino)pyrrolidin-1-yl)pyrazine-2-carboxamide]",100 to 500 nM
8,"Cn1cc2cc(NC(=O)c3cnc(N4CC[C@@H](NC5CC5)C4)cn3)c(OCC3CCOCC3)cc2n1 [Example 6, (R)-5-(3-(cyclopropylamino)pyrrolidin-1-yl)-N-(2-methyl-6-((tetrahydro-2H-pyran-4-yl)methoxy)-2H-indazol-5-yl)pyrazine-2-carboxamide]",500 to 1000 nM
9,"CC#CCOc1cc2nn(C)cc2cc1NC(=O)c1cnc(N2CC[C@@H](NC3CC3)C2)cn1 [Example 3, (R)-N-(6-(but-2-yn-1-yloxy)-2-methyl-2H-indazol-5-yl)-5-(3-(cyclopropylamino)pyrrolidin-1-yl)pyrazine-2-carboxamide]",100 to 500 nM
10,"Cn1cc2cc(NC(=O)c3cnc(N4CC[C@@H](NC5CC5)C4)cn3)c(OCC#N)cc2n1 [Example 7, (R)-N-(6-(cyanomethoxy)-2-methyl-2H-indazol-5-yl)-5-(3-(cyclopropylamino)pyrrolidin-1-yl)pyrazine-2-carboxamide]",100 to 500 nM
11,"Cc1cn2cc(NC(=O)c3cnc(N4C[C@@H](C)[C@H](NC5CC5)C4)cn3)cc(F)c2n1 [Example 13, 5-((3S,4R)-3-(cyclopropylamino)-4-methylpyrrolidin-1-yl)-N-(8-fluoro-2-methylimidazo[1,2-a]pyridin-6-yl)pyrazine-2-carboxamide]",100 to 500 nM
12,"Cc1cn2cc(NC(=O)c3cnc(N4CC[C@H](CNC5CC5)C4)cn3)c(F)c(C)c2n1 [Example 31, 5-[(3R)-3-[(cyclopropylamino)methyl]pyrrolidin-1-yl]-N-(7-fluoro-2,8-dimethyl-imidazo[1,2-a]pyridin-6-yl)pyrazine-2-carboxamide]",< 100 nM
13,"Cc1cn2cc(NC(=O)c3cnc(N4CCC(C)(N)C4)cn3)cc(F)c2n1 (racemic) [Example 42, 5-(3-Amino-3-methyl-pyrrolidin-1-yl)-N-(8-fluoro-2-methyl-imidazo[1,2-a]pyridin-6-yl)pyrazine-2-carboxamide]",100 to 500 nM
14,"COCCOc1cc2nn(C)cc2cc1NC(=O)c1cnc(N2CC[C@@H](NC3CC3)C2)cn1 [Example 9, (R)-5-(3-(cyclopropylamino)pyrrolidin-1-yl)-N-(6-(2-methoxyethoxy)-2-methyl-2H-indazol-5-yl)pyrazine-2-carboxamide]",100 to 500 nM
15,"COc1cc2nn(C)cc2cc1NC(=O)c1cnc(N2CC3C(N)C3C2)cn1 (stereo not drawn) [Example 30, 5-(6-Amino-3-azabicyclo[3.1.0]hexan-3-yl)-N-(6-methoxy-2-methyl-indazol-5-yl)pyrazine-2-carboxamide]",< 100 nM
16,"Cc1cn2cc(NC(=O)c3cnc(N4CC5C[C@]5(N)C4)cn3)cc(F)c2n1 (stereo partly drawn) [Example 36, 5-((1R)-1-amino-3-azabicyclo[3.1.0]hexan-3-yl)-N-(8-fluoro-2-methylimidazo[1,2-a]pyridin-6-yl)pyrazine-2-carboxamide]",100 to 500 nM
17,Cc1cn2cc(NC(=O)c3cnc(N4CC5C(N)C5C4)cn3)c(F)c(C)c2n1 (stereo not drawn) [Example 27],100 to 500 nM
18,"C#CCOc1cc2nn(C)cc2cc1NC(=O)c1cnc(N2CC3(CCCN(C)C3)C2)cn1 [Example 11, N-(2-methyl-6-(prop-2-yn-1-yloxy)-2H-indazol-5-yl)-5-(6-methyl-2,6-diazaspiro[3.5]nonan-2-yl)pyrazine-2-carboxamide]",100 to 500 nM
19,"Cc1nc2c(F)cc(NC(=O)c3cnc(N(C)C4CCNCC4)cn3)cc2o1 [Example 14, N-(4-fluoro-2-methylbenzo[d]oxazol-6-yl)-5-(methyl(piperidin-4-yl)amino)pyrazine-2-carboxamide]",100 to 500 nM
20,CCOc1cc2nn(C)cc2cc1NC(=O)c1cnc(N2CC(CN3CC(F)C3)C2)cn1 [Example 17],100 to 500 nM
21,"Cc1cn2cc(NC(=O)c3cnc(N4CCC(N(C)C)C4=O)cn3)cc(F)c2n1 (single isomer, unassigned) [Example 38, (S*)-5-(3-(dimethylamino)-2-oxopyrrolidin-1-yl)-N-(8-fluoro-2-methylimidazo[1,2-a]pyridin-6-yl)pyrazine-2-carboxamide]",500 to 1000 nM
22,"C#CCOc1cc2nn(C)cc2cc1NC(=O)c1cnc(N2CC[C@@H](NC)C2)cn1 [Example 4, (R)-N-(2-methyl-6-(prop-2-yn-1-yloxy)-2H-indazol-5-yl)-5-(3-(methylamino)pyrrolidin-1-yl)pyrazine-2-carboxamide]",< 100 nM
23,"Cc1cn2cc(NC(=O)c3cnc(N4CC5C(C4)C5NC4CC4)cn3)cc(F)c2n1 (stereo not drawn) [Example 37, 5-[6-(Cyclopropylamino)-3-azabicyclo[3.1.0]hexan-3-yl]-N-(8-fluoro-2-methyl-imidazo[1,2-a]pyridin-6-yl)pyrazine-2-carboxamide]",100 to 500 nM
24,Cc1cn2cc(NC(=O)c3cnc(N4CC5C(N)C5C4)cn3)nc(C)c2n1 (stereo not drawn) [Example 25],100 to 500 nM
25,Cn1cc2cc(NC(=O)c3cnc(N4CC[C@@H](NC5CC5)C4)cn3)c(OC(F)F)cc2n1 [Example 18],100 to 500 nM
26,"CCNC1C2CN(c3cnc(C(=O)Nc4cc(F)c5nc(C)cn5c4)cn3)CC21 (stereo not drawn) [Example 23, 5-(6-(ethylamino)-3-azabicyclo[3.1.0]hexan-3-yl)-N-(8-fluoro-2-methylimidazo[1,2-a]pyridin-6-yl)pyrazine-2-carboxamide]",< 100 nM
27,"CN1CCCC2(C1)CN(c1cnc(C(=O)Nc3cc4cn(C)nc4cc3OCc3ccccc3)cn1)C2 [Example 10, N-(6-(benzyloxy)-2-methyl-2H-indazol-5-yl)-5-(6-methyl-2,6-diazaspiro[3.5]nonan-2-yl)pyrazine-2-carboxamide]",100 to 500 nM

# From patent US12281116B2, “HTT modulators for treating Huntington's disease” (CHDI Foundation, Inc., priority 2021, dated 2025)
